Data published in ChEMBL document CHEMBL4393707, “Synthesis and evaluation of new quinazolin-4(3H)-one derivatives as potent antibacterial agents against multidrug resistant Staphylococcus aureus and Mycobacterium tuberculosis” (Eur J Med Chem, 2019).
In brackets after ≈: the same amount, converted by molar mass.

What was measured:
Assay type in all cases: functional
[1] = test system: Escherichia coli; test: Antibacterial activity against Escherichia coli ATCC 25922 incubated for 16 to 18 hrs by broth microdilution assay
[2] = test system: Mycobacterium tuberculosis; test: Antitubercular activity against Mycobacterium tuberculosis H37Rv after 7 days by resazurin dye based assay; conditions: 168 h
[3] = test system: Klebsiella pneumoniae; test: Antibacterial activity against Klebsiella pneumoniae ATCC BAA-1705 incubated for 16 to 18 hrs by broth microdilution assay
[4] = test system: Staphylococcus aureus; test: Antibacterial activity against Staphylococcus aureus ATCC 29213 incubated for 16 to 18 hrs by broth microdilution assay
[5] = test system: Pseudomonas aeruginosa; test: Antibacterial activity against Pseudomonas aeruginosa ATCC 27853 incubated for 16 to 18 hrs by broth microdilution assay
[6] = test system: Acinetobacter baumannii; test: Antibacterial activity against Acinetobacter baumannii BAA1605 incubated for 16 to 18 hrs by broth microdilution assay

Molecule	MIC [1]	MIC [2]	MIC [3]	MIC [4]	MIC [5]	MIC [6]
CC(C)(C)c1ccc(-n2c(/C=C/c3ccc(C#N)cc3)nc3ncccc3c2=O)cc1	> 64 µg/mL	> 64 µg/mL	> 64 µg/mL	> 64 µg/mL	> 64 µg/mL	> 64 µg/mL
Cc1ccc(C)c(-n2c(/C=C/c3ccc(C#N)cc3)nc3ncccc3c2=O)c1	> 64 µg/mL	> 64 µg/mL	> 64 µg/mL	> 64 µg/mL	> 64 µg/mL	> 64 µg/mL
COc1ccc(-c2ccc3nc(/C=C/c4ccccc4)n(-c4ccccc4)c(=O)c3c2)cc1	> 64 µg/mL	64 µg/mL (≈ 149 µM)	> 64 µg/mL	> 64 µg/mL	> 64 µg/mL	> 64 µg/mL
N#Cc1ccc(/C=C/c2nc3ncccc3c(=O)n2Cc2ccc(F)cc2)cc1	> 64 µg/mL	> 64 µg/mL	> 64 µg/mL	> 64 µg/mL	> 64 µg/mL	> 64 µg/mL
C#Cc1cccc(-n2c(/C=C/c3ccc(C#N)cc3)nc3ncccc3c2=O)c1	> 64 µg/mL	> 64 µg/mL	> 64 µg/mL	> 64 µg/mL	> 64 µg/mL	> 64 µg/mL
Cc1nc2cc(-n3cc(COc4ccccc4)nn3)ccc2c(=O)n1-c1ccccc1	> 64 µg/mL	> 64 µg/mL	> 64 µg/mL	> 64 µg/mL	> 64 µg/mL	> 64 µg/mL
C=CCOc1cccc(-n2c(/C=C/c3ccc(C#N)cc3)nc3cccc(F)c3c2=O)c1	> 64 µg/mL	> 64 µg/mL	> 64 µg/mL	64 µg/mL (≈ 151 µM)	> 64 µg/mL	> 64 µg/mL
C#CCNc1ccc2c(=O)n(-c3ccccc3)c(/C=C/c3ccc(C#N)cc3)nc2c1	> 64 µg/mL	> 64 µg/mL	> 64 µg/mL	> 64 µg/mL	> 64 µg/mL	> 64 µg/mL
COc1ccc(-c2cn(-c3ccc4c(=O)n(-c5ccccc5)c(C)nc4c3)nn2)cc1	> 64 µg/mL	64 µg/mL (≈ 156 µM)	> 64 µg/mL	> 64 µg/mL	> 64 µg/mL	> 64 µg/mL
N#Cc1ccc(/C=C/c2nc3ccccc3c(=O)n2CCc2c[nH]c3ccccc23)cc1	> 64 µg/mL	> 64 µg/mL	> 64 µg/mL	> 64 µg/mL	> 64 µg/mL	> 64 µg/mL
Cc1nc2cc(-n3cc(-c4ccc(Br)cc4)nn3)ccc2c(=O)n1-c1ccccc1	> 64 µg/mL	64 µg/mL (≈ 140 µM)	> 64 µg/mL	64 µg/mL (≈ 140 µM)	> 64 µg/mL	> 64 µg/mL
CN(C)c1ccc(O)c2c1C[C@H]1C[C@H]3[C@H](N(C)C)C(O)=C(C(N)=O)C(=O)[C@@]3(O)C(O)=C1C2=O [MINOCYCLINE]				0.125 µg/mL (≈ 0.273 µM)		
GENTAMICIN				0.25 µg/mL		
N#Cc1ccc(/C=C/c2nc3ncccc3c(=O)n2-c2cccc(O)c2)cc1	> 64 µg/mL	> 64 µg/mL	> 64 µg/mL	> 64 µg/mL	> 64 µg/mL	> 64 µg/mL
Cc1cc(-n2cc(CNc3ccc4c(=O)n(-c5ccccc5)c(C)nc4c3)nn2)ccc1[N+](=O)[O-]	> 64 µg/mL	> 64 µg/mL	> 64 µg/mL	> 64 µg/mL	> 64 µg/mL	> 64 µg/mL
N#Cc1ccc(/C=C/c2nc3ccccc3c(=O)n2Cc2ccc(F)cc2)cc1	> 64 µg/mL	> 64 µg/mL	> 64 µg/mL	> 64 µg/mL	> 64 µg/mL	> 64 µg/mL
N#Cc1ccc(/C=C/c2nc3ccccc3c(=O)n2-c2cccnc2)cc1	> 64 µg/mL	> 64 µg/mL	> 64 µg/mL	64 µg/mL (≈ 183 µM)	> 64 µg/mL	> 64 µg/mL
COc1ccc(-c2ccc3c(=O)n(-c4cccc(Cl)c4)c(C)nc3c2)cc1	> 64 µg/mL	> 64 µg/mL	> 64 µg/mL	> 64 µg/mL	> 64 µg/mL	> 64 µg/mL
COC(=O)Cn1c(/C=C/c2ccc(C#N)cc2)nc2ccc(OCc3cn(-c4ccc(F)c(Cl)c4)nn3)cc2c1=O	> 64 µg/mL	> 64 µg/mL	> 64 µg/mL	> 64 µg/mL	> 64 µg/mL	> 64 µg/mL
CO[C@H]1/C=C/O[C@@]2(C)Oc3c(C)c(O)c4c(O)c(c(/C=N/N5CCN(C)CC5)c(O)c4c3C2=O)NC(=O)/C(C)=C\C=C\[C@H](C)[C@H](O)[C@@H](C)[C@@H](O)[C@@H](C)[C@H](OC(C)=O)[C@@H]1C [RIFAMPIN]		0.03 µg/mL (≈ 0.0365 µM)		0.015 µg/mL (≈ 0.0182 µM)		
N#Cc1ccc(/C=C/c2nc3cc(-n4cc(-c5ccccc5)nn4)ccc3c(=O)n2-c2ccccc2)cc1	> 64 µg/mL	> 64 µg/mL	> 64 µg/mL	> 64 µg/mL	> 64 µg/mL	> 64 µg/mL
N#Cc1ccc(/C=C/c2nc3cc(-c4ccccc4)ccc3c(=O)n2-c2cccc(Cl)c2)cc1	> 64 µg/mL	> 64 µg/mL	> 64 µg/mL	> 64 µg/mL	> 64 µg/mL	> 64 µg/mL

Molecule	MIC [1]	MIC [2]	MIC [3]	MIC [4]	MIC [5]	MIC [6]
Cc1cc(C)cc(OCc2cn(-c3ccc4c(=O)n(-c5cccc(Cl)c5)c(C)nc4c3)nn2)c1	> 64 µg/mL	> 64 µg/mL	> 64 µg/mL	> 64 µg/mL	> 64 µg/mL	> 64 µg/mL
Cc1nc2cc(-n3cc(-c4ccccc4)nn3)ccc2c(=O)n1-c1ccccc1	> 64 µg/mL	> 64 µg/mL	> 64 µg/mL	> 64 µg/mL	> 64 µg/mL	> 64 µg/mL
N#Cc1ccc(/C=C/c2nc3ncccc3c(=O)n2-c2ccc(C#N)cc2)cc1	> 64 µg/mL	> 64 µg/mL	> 64 µg/mL	64 µg/mL (≈ 170 µM)	> 64 µg/mL	> 64 µg/mL
Cc1nc2ccc(OCc3cn(-c4cccc(Cl)c4)nn3)cc2c(=O)n1Cc1ccccc1	> 64 µg/mL	> 64 µg/mL	> 64 µg/mL	> 64 µg/mL	> 64 µg/mL	> 64 µg/mL
CCC(C)(C)c1ccc(OCc2cn(-c3ccc4c(=O)n(-c5cccc(Cl)c5)c(C)nc4c3)nn2)cc1	> 64 µg/mL	> 64 µg/mL	> 64 µg/mL	> 64 µg/mL	> 64 µg/mL	> 64 µg/mL
C#CCOc1ccc2nc(/C=C/c3ccc(C#N)cc3)n(CC(=O)OC)c(=O)c2c1	> 64 µg/mL	> 64 µg/mL	> 64 µg/mL	> 64 µg/mL	> 64 µg/mL	> 64 µg/mL
N#Cc1ccc(/C=C/c2nc3ccc(OCc4cn(-c5cccc(Cl)c5)nn4)cc3c(=O)n2Cc2ccccc2)cc1	> 64 µg/mL	> 64 µg/mL	> 64 µg/mL	> 64 µg/mL	> 64 µg/mL	> 64 µg/mL
Cc1nc2ccc(OCc3cn(Cc4ccc(Br)cc4)nn3)cc2c(=O)n1-c1ccccc1	> 64 µg/mL	> 64 µg/mL	> 64 µg/mL	64 µg/mL (≈ 127 µM)	> 64 µg/mL	> 64 µg/mL
Cc1nc2ccc(OCc3cn(-c4ccc(Cl)cc4)nn3)cc2c(=O)n1Cc1ccccc1	> 64 µg/mL	> 64 µg/mL	> 64 µg/mL	> 64 µg/mL	> 64 µg/mL	> 64 µg/mL
N#Cc1ccc(/C=C/c2nc3ccccc3c(=O)n2-c2cccc3ccccc23)cc1	> 64 µg/mL	> 64 µg/mL	> 64 µg/mL	> 64 µg/mL	> 64 µg/mL	> 64 µg/mL
COc1cc(-n2c(/C=C/c3ccc(C#N)cc3)nc3ncccc3c2=O)cc(OC)c1OC	> 64 µg/mL	64 µg/mL (≈ 145 µM)	> 64 µg/mL	64 µg/mL (≈ 145 µM)	> 64 µg/mL	> 64 µg/mL
N#Cc1ccc(/C=C/c2nc3ccccc3c(=O)n2Cc2ccc(Cl)c(Cl)c2)cc1	> 64 µg/mL	> 64 µg/mL	> 64 µg/mL	> 64 µg/mL	> 64 µg/mL	> 64 µg/mL
Cc1nc2cc(NCc3cn(-c4ccc(F)c(Cl)c4)nn3)ccc2c(=O)n1-c1ccccc1	> 64 µg/mL	> 64 µg/mL	> 64 µg/mL	> 64 µg/mL	> 64 µg/mL	> 64 µg/mL
N#Cc1ccc(/C=C/c2nc3ncccc3c(=O)n2-c2ccc3c(c2)OCCO3)cc1	> 64 µg/mL	> 64 µg/mL	> 64 µg/mL	> 64 µg/mL	> 64 µg/mL	> 64 µg/mL
N#Cc1ccc(/C=C/c2nc3cccc(F)c3c(=O)n2-c2cccc(C#N)c2)cc1	> 64 µg/mL	> 64 µg/mL	> 64 µg/mL	32 µg/mL (≈ 81.6 µM)	> 64 µg/mL	> 64 µg/mL
COc1ccc(-c2ccc3nc(C)n(-c4ccccc4)c(=O)c3c2)cc1	> 64 µg/mL	> 64 µg/mL	> 64 µg/mL	32 µg/mL (≈ 93.5 µM)	> 64 µg/mL	> 64 µg/mL
N#Cc1ccc(/C=C/c2nc3ccccc3c(=O)n2-c2ccc(O)cc2C(=O)O)cc1	> 64 µg/mL	> 64 µg/mL	> 64 µg/mL	> 64 µg/mL	> 64 µg/mL	> 64 µg/mL
N#Cc1ccc(/C=C/c2nc3ccccc3c(=O)n2Nc2ccc(C(F)(F)F)cc2)cc1	> 64 µg/mL	> 64 µg/mL	> 64 µg/mL	> 64 µg/mL	> 64 µg/mL	> 64 µg/mL
CCCCCCCCCC(=O)N[C@@H](Cc1c[nH]c2ccccc12)C(=O)N[C@H](CC(N)=O)C(=O)N[C@@H](CC(=O)O)C(=O)N[C@@H]1C(=O)NCC(=O)N[C@@H](CCCN)C(=O)N[C@@H](CC(=O)O)C(=O)N[C@H](C)C(=O)N[C@@H](CC(=O)O)C(=O)NCC(=O)N[C@H](CO)C(=O)N[C@@H]([C@H](C)CC(=O)O)C(=O)N[C@@H](CC(=O)c2ccccc2N)C(=O)O[C@@H]1C				0.5 µg/mL (≈ 0.309 µM)		
CC(C)(O/N=C(\C(=O)N[C@@H]1C(=O)N2C(C(=O)[O-])=C(C[n+]3ccccc3)CS[C@H]12)c1csc(N)n1)C(=O)O [CEFTAZIDIME]				16 µg/mL (≈ 29.3 µM)		
NNC(=O)c1ccncc1 [ISONIAZID]		0.03 µg/mL (≈ 0.219 µM)				
C#CCOc1ccc2nc(/C=C/c3ccc(C#N)cc3)n(Cc3ccccc3)c(=O)c2c1	> 64 µg/mL	> 64 µg/mL	> 64 µg/mL	> 64 µg/mL	> 64 µg/mL	> 64 µg/mL
